Reference: patent US3998963A, “Tertiary butyl substituted carbamoyl oxime pesticides” (priority 1975, dated 1976)
Values after ≈ are worked out from the molar mass of the structure shown.

Tests used:
Type in all cases: in vivo
[1] = test system: bean aphid (Aphis fabae Scop.); assay: Bean Aphid Foliage Spray Test; conditions: foliar, 24 hour holding period, read-out: Insect LD50, Aphid
Method: (§1) Suspensions of the test compouns were prepared by dissolving one gram of compound in 50 milliliters of acetone in which had been dissolved 0.1 gram (10 percent of the weight of compound) of an alkylphenoxy polyethoxyethanol surfactant, as an emulsifying or dispersing agent. The resulting solution was mixed into 150 milliliters of water to give roughly 200 milliliters of a suspension containing the compound in finely divided form. The thus-prepared stock suspension contained 0.5 percent by weight of compound. The test concentrations in parts per million by weight employed in the tests described hereinbelow were obtained by appropriate dilutions of the stock suspension with water. The test procedures were as follows:
Bean Aphid Foliage Spray Test
Adults and nymphal stages of the bean aphid (Aphis fabae Scop.) reared on potted dwarf nasturtium plants at 65°-70° F. and 50-70 per cent relative humidity, constituted the test insects. For testing purposes, the number of aphids per pot was standardized to 100-150 by trimming plants containing excess aphids.
The test compounds were formulated by diluting the stock suspension with water to give a suspension containing 500 parts of test compound per million parts of final formulation.
The potted plants (one pot per compound tested) infested with 100-150 aphids, were placed on a revolving turntable and sprayed with 100 -110 milliliters of test compound formulation by use of a DeVilbiss spray gun set at 40 psig. air pressure. This application, which lasted 25 seconds, was sufficient to wet the plants to run-off. As a control, 100-110 milliliters of a water-acetone-emulsifier solution containing no test compound were also sprayed on infested plants. After spraying, the pots were placed on their sides on a sheet of white standard mimeograph paper which had peen previously ruled to facilitate counting. Temperature and humidity in the test room during the 24 hour holding period were 65°-70° F. and 50-70 per cent, respectively. Aphids which fell onto the paper and were unable to remain standing after being uprighted were considered dead. Aphids remaining on the plants were observed closely for movement and those which were unable to move the length of the body upon stimulation by prodding were considered dead. Per cent mortality was recorded for various concentration levels.

[2] = test system: two-spotted mite (Tetranychus urticae Koch); assay: Mite Foliage Spray Test; conditions: foliar, 144 h, 6 days, read-out: Insect LD50, Mite
Method: as §1
Adults and nymphal stage of the two-spotted mite (Tetranychus urticae Koch), reared on Tendergreen bean plants at 80±5 per cent relative humidity, were the test organisms. Infested leaves from a stock culture were placed on the primary leaves of two bean plants 6 to 8 inches in height, growing in a 21/2 inch clay pot. 150-200 Mites, a sufficient number for testing, transferred from the excised leaves to the fresh plants in a period of twenty four hours. Following the twenty four hour transfer period, the excised leaves were removed from the infested plants. The test compounds were formulated by diluting the stock suspension with water to give a suspension containing 500 parts of test compound per million parts of final formulation. The potted plants (one pot per compound) were placed on a revolving turntable and sprayed with 100-110 milliliters of test compound formulation by use of a DeVilbiss spray gun set at 40 psig. air pressure. This application, which lasted 25 seconds, was sufficient to wet the plants to run-off. As a control, 100-110 milliliters of a water solution containing acetone and emulsifier in the same concentrations as the test compound formulation, but containing no test compound, were also sprayed on infested plants. The sprayed plants were held at 80±5 per cent relative humidity for 6 days, after which a mortality count of motile forms was made. Microscopic examination for motile forms was made on the leaves of the test plants. Any individual which was capable of locomotion upon prodding was considered living.

[3] = test system: southern armyworm (Spodoptera eridania, (Cram.)); assay: Southern Armyworm Leaf Spray Bait Test
Method: as §1
Southern Armyworm Leaf Spray Bait Test
Larvae of the southern armyworm (Spodoptera eridania, (Cram.)), reared on Tendergreen bean plants at a temperature of 80°±5° F. and a relative humidity of 50±5 per cent, constituted the test insects.
The test compounds were formulated by diluting the stock suspension with water to give a suspension containing 500 parts of test compound per million parts of final formulation. Potted Tendergreen bean plants of standard height and age were placed on a revolving turntable and sprayed with 100-110 milliliters of test compound formulation by use of a DeVilbiss spray gun set at 10 psig air pressure. This application, which lasted 25 seconds, was sufficient to wet plants to run-off. As a control, 100-110 milliliters of a water-acetone-emulsifier solution containing no test compound were also sprayed on infested plants. When dry, the paired leaves were separated and each one was placed in a 9 centimeter Petri dish lined with moistened filter paper. Five randomly selected larvae were introduced into each dish and the dishes were closed. The closed dishes were labeled and held at 80°-85° F. for 3 days. Although the larvae could easily consume the whole leaf within 24 hours, no more food was added. Larvae which were unable to move the length of the body, even upon stimulation by prodding, were considered dead. Per cent mortality was recorded for various concentration levels.
(§2) In Table 1 are presented insect and rat toxicity data (bait tests) on a comparative basis of the compounds described above. […] Rat toxicity is also more meaningfully compared on the basis of molar weight LD50 values. The relative efficacy of the parent compounds as compared to the previously known derivatives and as compared to the new compounds of this invention is also shown in Table 1. The ratio of efficacy as contact poisons (immersion/bait) of the compounds tested against Armyworm and House Fly is presented in Table 2 along with the results of the phytotoxicity tests of the compounds on bean, corn, tomato and cotton.

[4] = test system: Mexican bean beetle (Epilachna varivestis, Muls.); assay: Mexican Bean Beetle Leaf Spray Test; conditions: 72 h, 3 days, read-out: Insect LD50, Beetle
Method: as §1
Mexican Bean Beetle Leaf Spray Test
Fourth instar lavae of the Mexican bean beetle (Epilachna varivestis, Muls.), reared on Tendergreen bean plants at a temperature of 80°±5° F. and 50±5 per cent relative humidity, were the test insects.
The test compounds were formulated by diluting the stock suspension with water to give a suspension containing 500 parts of test compound per million parts of final formulation. Potted Tendergreen bean plants of standard height and age were placed on a revolving turntable and sprayed with 100-110 milliliters of test comound formulation by use of a DeVilbiss spray gun set at 10 psig air pressure. This application, which lasted 25 seconds, was sufficient to wet plants to run-off. As a control, 100-110 milliliters of a water-acetone-emulsifier solution containing no test compound were also sprayed on infested plants. When dry, the paired leaves were separated and each was placed in a 9 centimeter Petri dish lined with moistened filter paper. Five randomly selected larvae were introduced into each dish, and the dishes were closed. The closed dishes were labeled and held at a temperature of 80°±5° F, for 3 days. Although the larvae could easily consume the leaf within 24 to 48 hours, no more food was added. Larvae which were unable to move the length of the body, even upon stimulation, were considered dead.

[5] = test system: house flies (Musca domestica, L.); assay: Fly Bait Test; conditions: Musca domestica, 24 hours, read-out: Insect LD50, Housefly
Method: as §1
Four to six day old adult house flies (Musca domestica, L.), reared according to the specifications of the Chemical Specialities Manufacturing Association (Blue Book, McNair-Dorland Co., N.Y. 1954; pages 243-244, 261) under controlled conditions of 80°±5° F. and 50±5 per cent relative humidity, were the test insects. The flies were immobilized by anesthetizing with carbon dioxide and twenty five immobilized individuals, males and females, were transferred to a cage consisting of a standard food strainer about five inches in diameter which was inverted over a wrapping-paper covered surface. The test compounds were formulated by diluting the stock suspension with a 10 per cent (by weight) sugar solution to give a suspension containing 500 parts of test compound per million parts of final formulation, by weight. Ten milliliters of the test formulation were added to a souffle cup containing a 1-inch square of an absorbent cotton pad. This bait cup was introduced and centered on the blotting paper under the food strainer prior to admitting the anesthetized flies. The caged flies were allowed to feed on the bait for 24 hours, at a temperature of 80°±5° F. and the relative humidity of 50±5 per cent.
as §2

Work on `CCSC(C)=NOC(=O)N(C)Sc1ccc(C(C)(C)C)cc1` [Compound 10] yielded an LC50 [1] of 5 µg/mL (≈ 14.7 µM), an LC50 [2] of over 500 µg/mL and an LC50 ([3]; Spodoptera eridania, 72 h, leaf spray bait, 3 days, read-out: Insect LD50, Armyworm) of 14 µg/mL (≈ 41.1 µM). The “(b) relative efficacy of derivative vs parent compound, Armyworm” value ([3]; bait, formula of footnote b is drawing 8) was 1.52, the LC50 [4] was 20 µg/mL (≈ 58.7 µM) and the LC50 [5] was 13 µg/mL (≈ 38.2 µM).
